Reference: patent US10711004B2 (Genentech, Inc., priority 2018, dated 2020)
pIC50: −log10 of the molar value. Like-named read-outs stand apart in the source and are kept apart here.

Target: human TRPA1 channel (Homo sapiens (Human), UniProt O75762)
Test: hTRPA1 CHO Ca2+ FLIPR Tetra assay, block of cinnamaldehyde induced calcium influx
Assay type: cell-based
Details: for pIC50: CHO cells expressing TRPA1, Hill coefficient fixed to 1.5
How it was run: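 Calcium-dye-loaded TRPA1-expressing CHO cells in HBSS/20 mM HEPES pH 7.4, 0.02% BSA were preincubated with compound for 10 or 90 min at room temperature. Calcium influx evoked by roughly an EC50 concentration of cinnamaldehyde was then read on FLIPR Tetra; IC50 came from curve fits with a fixed Hill coefficient.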

[1] = read-out: hTRPA1 IC50 (10 min), compounds incubated 10 minutes at room temperature before cinnamaldehyde agonist
[2] = read-out: hTRPA1 IC50 (90 min), compounds incubated 90 minutes at room temperature before cinnamaldehyde agonist

Sequence of human TRPA1 channel (O75762 whole entry): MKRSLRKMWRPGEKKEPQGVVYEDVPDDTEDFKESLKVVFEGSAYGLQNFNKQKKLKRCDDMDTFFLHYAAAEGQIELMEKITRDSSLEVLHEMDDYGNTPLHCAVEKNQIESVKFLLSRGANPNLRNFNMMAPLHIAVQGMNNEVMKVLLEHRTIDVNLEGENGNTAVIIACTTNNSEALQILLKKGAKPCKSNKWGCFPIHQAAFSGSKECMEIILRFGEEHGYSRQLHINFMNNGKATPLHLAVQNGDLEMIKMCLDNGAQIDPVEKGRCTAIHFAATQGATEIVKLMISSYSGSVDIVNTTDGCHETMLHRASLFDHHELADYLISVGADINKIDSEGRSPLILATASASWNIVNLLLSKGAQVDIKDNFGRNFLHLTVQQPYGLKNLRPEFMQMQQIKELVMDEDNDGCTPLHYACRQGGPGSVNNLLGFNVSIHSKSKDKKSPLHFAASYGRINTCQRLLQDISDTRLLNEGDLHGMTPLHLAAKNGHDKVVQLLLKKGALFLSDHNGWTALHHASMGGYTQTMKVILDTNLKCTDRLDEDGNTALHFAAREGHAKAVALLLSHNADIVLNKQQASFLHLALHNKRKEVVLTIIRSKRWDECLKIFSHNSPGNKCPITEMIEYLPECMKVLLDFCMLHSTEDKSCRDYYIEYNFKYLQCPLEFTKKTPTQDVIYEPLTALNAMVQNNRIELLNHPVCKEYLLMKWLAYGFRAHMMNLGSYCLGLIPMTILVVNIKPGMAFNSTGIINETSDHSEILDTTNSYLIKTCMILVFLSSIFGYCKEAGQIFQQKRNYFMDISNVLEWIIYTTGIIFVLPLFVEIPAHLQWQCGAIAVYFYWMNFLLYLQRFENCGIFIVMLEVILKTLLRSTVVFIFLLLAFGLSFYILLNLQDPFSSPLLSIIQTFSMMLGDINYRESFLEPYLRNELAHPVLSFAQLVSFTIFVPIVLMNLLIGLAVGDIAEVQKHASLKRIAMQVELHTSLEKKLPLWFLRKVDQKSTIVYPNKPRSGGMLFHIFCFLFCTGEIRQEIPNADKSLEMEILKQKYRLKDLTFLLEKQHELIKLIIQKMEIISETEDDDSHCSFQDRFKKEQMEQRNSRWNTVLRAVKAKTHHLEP

pIC50 [1]	pIC50 [2]	TRPA1 IC50 compared with 3-azabicyclo[3.1.0]hexene linker and cyclobutylene linker analogues (bicyclo[3.1.0]hexene linker compounds versus same-substituent analogues (compounds 16, 191; 26, 1))	pIC50 (compounds incubated 90 minutes at room temperature before cinnamaldehyde agonist)	pIC50 (compounds incubated 10 minutes at room temperature before cinnamaldehyde agonist)	Structure (SMILES)
6.92	7.17	–	–	–	Cn1cnc2ncn(Cc3nc([C@@H]4[C@H]5C=C(c6cc(Cl)ccn6)C[C@H]54)no3)c(=O)c21 [Example Compound 159, 1-((3-((1R,5R,6S)-3-(4-chloropyridin-2-yl)bicyclo[3.1.0]hex-2-en-6-yl)-1,2,4-oxadiazol-5-yl)methyl)-7-methyl-1,7-dihydro-6H-purin-6-one]
8.05	8.74	improved TRPA1 IC50 values	–	–	Cn1cnc2ncn(Cc3nc([C@H]4[C@@H]5C=C(c6cccc(Cl)c6)C[C@@H]54)no3)c(=O)c21 [Example Compound 184, 1-((3-((1S,5S,6R)-3-(3-chlorophenyl)bicyclo[3.1.0]hex-2-en-6-yl)-1,2,4-oxadiazol-5-yl)methyl)-7-methyl-1,7-dihydro-6H-purin-6-one]
7.78	8.12	–	–	–	Cn1cnc2ncn(Cc3nc([C@@H]4[C@H]5C=C(c6ccc7ccncc7c6)C[C@H]54)no3)c(=O)c21 [Example Compound 136, 1-((3-((1R,5R,6S)-3-(isoquinolin-7-yl)bicyclo[3.1.0]hex-2-en-6-yl)-1,2,4-oxadiazol-5-yl)methyl)-7-methyl-1,7-dihydro-6H-purin-6-one]
7.96	8.12	–	–	–	Cn1cnc2ncn(Cc3nc([C@@H]4[C@H]5C=C(c6ccc(F)cc6)C[C@H]54)no3)c(=O)c21 [Example Compound 124, 1-((3-((1R,5R,6S)-3-(4-fluorophenyl)bicyclo[3.1.0]hex-2-en-6-yl)-1,2,4-oxadiazol-5-yl)methyl)-7-methyl-1,7-dihydro-6H-purin-6-one]
6.07	6.07	–	–	–	Cn1cnc2ncn(Cc3nc([C@H]4[C@@H]5CN(C[C@@H](F)c6ccc(Cl)cc6)C[C@@H]54)no3)c(=O)c21 [Example Compound 156, 1-((3-((1R,5S,6S)-3-((S)-2-(4-chlorophenyl)-2-fluoroethyl)-3-azabicyclo[3.1.0]hexan-6-yl)-1,2,4-oxadiazol-5-yl)methyl)-7-methyl-1,7-dihydro-6H-purin-6-one]
7.10	7.37	–	–	–	Cn1c(NC2CCOCC2)nc2ncn(Cc3nc([C@H]4[C@@H]5C=C(c6ccccc6)C[C@@H]54)no3)c(=O)c21 [Example Compound 245, 7-methyl-1-[[3-[(1S,5S,6R)-3-phenyl-6-bicyclo[3.1.0]hex-2-enyl]-1,2,4-oxadiazol-5-yl]methyl]-8-(tetrahydropyran-4-ylamino)purin-6-one]
7.48	8.42	–	–	–	Cn1c(N)nc2ncn(Cc3nc([C@H]4[C@@H]5C=C(c6ccccc6)C[C@@H]54)no3)c(=O)c21 [Example Compound 255, 8-amino-7-methyl-1-[[3-[(1S,5S,6R)-3-phenyl-6-bicyclo[3.1.0]hex-2-enyl]-1,2,4-oxadiazol-5-yl]methyl]purin-6-one]
7.82	7.92	–	–	–	Cn1cnc2ncn(Cc3nc([C@@H]4[C@H]5C=C(c6ccc(Cl)cc6)C[C@H]54)no3)c(=O)c21 [Example Compound 142, 1-((3-((1R,5R,6S)-3-(4-chlorophenyl)bicyclo[3.1.0]hex-2-en-6-yl)-1,2,4-oxadiazol-5-yl)methyl)-7-methyl-1,7-dihydro-6H-purin-6-one]
7.31	7.43	–	–	–	Cn1cnc2ncn(Cc3nc([C@@H]4[C@H]5C=C(c6cccc(C(F)F)c6)C[C@H]54)no3)c(=O)c21 [Example Compound 102, 1-((3-((1R,5R,6S)-3-(3-(difluoromethyl)phenyl)bicyclo[3.1.0]hex-2-en-6-yl)-1,2,4-oxadiazol-5-yl)methyl)-7-methyl-1,7-dihydro-6H-purin-6-one]
6.71	7.37	–	–	–	Cn1cnc2ncn(Cc3nc([C@H]4[C@@H]5CN(c6cc(F)ccn6)C[C@@H]54)no3)c(=O)c21 [Example Compound 182, 1-((3-((1R,5S,6r)-3-(4-fluoropyridin-2-yl)-3-azabicyclo[3.1.0]hexan-6-yl)-1,2,4-oxadiazol-5-yl)methyl)-7-methyl-1,7-dihydro-6H-purin-6-one]
7.41	–	–	–	–	Cc1ccnc2ncn(Cc3nc([C@H]4C[C@](O)(c5ccc6ccccc6c5)C4)no3)c(=O)c12 [Example Compound 233, 3-((3-((1s,3s)-3-hydroxy-3-(naphthalen-2-yl)cyclobutyl)-1,2,4-oxadiazol-5-yl)methyl)-5-methylpyrido[2,3-d]pyrimidin-4(3H)-one]
7.66	7.68	–	–	–	O=c1c2cccnc2ncn1Cc1nc([C@@H]2[C@H]3C=C(c4cccc(Cl)c4)C[C@H]32)no1 [Example Compound 181, 3-((3-((1R,5R,6S)-3-(3-chlorophenyl)bicyclo[3.1.0]hex-2-en-6-yl)-1,2,4-oxadiazol-5-yl)methyl)pyrido[2,3-d]pyrimidin-4(3H)-one]
7.13	7.36	–	–	–	Cn1nnc2ncn(Cc3nc([C@H]4[C@@H]5CN(c6cc(Cl)ccn6)C[C@@H]54)no3)c(=O)c21 [Example Compound 130, 6-((3-((1R,5S,6r)-3-(4-chloropyridin-2-yl)-3-azabicyclo[3.1.0]hexan-6-yl)-1,2,4-oxadiazol-5-yl)methyl)-1-methyl-1,6-dihydro-7H-[1,2,3]triazolo[4,5-d]pyrimidin-7-one]
7.71	8.00	–	–	–	Cc1cc(C#N)nc2ncn(Cc3nc([C@H]4C[C@](F)(c5ccc(Cl)cc5)C4)no3)c(=O)c12 [Example Compound 158, 3-((3-((1s,3s)-3-(4-chlorophenyl)-3-fluorocyclobutyl)-1,2,4-oxadiazol-5-yl)methyl)-5-methyl-4-oxo-3,4-dihydropyrido[2,3-d]pyrimidine-7-carbonitrile]
7.42	–	–	–	–	Cn1cnc2ncn(Cc3nc([C@H]4C[C@H](Oc5cccc(Cl)c5)C4)no3)c(=O)c21 [Example Compound 217, 1-((3-((1r,3r)-3-(3-chlorophenoxy)cyclobutyl)-1,2,4-oxadiazol-5-yl)methyl)-7-methyl-1,7-dihydro-6H-purin-6-one]
7.86	–	–	7.89	–	O=c1c2cccnc2ncn1Cc1nc([C@H]2[C@@H]3CN(c4cccc(Cl)c4)C[C@@H]32)no1 [Example Compound 216, 3-((3-((1R,5S,6r)-3-(3-chlorophenyl)-3-azabicyclo[3.1.0]hexan-6-yl)-1,2,4-oxadiazol-5-yl)methyl)pyrido[2,3-d]pyrimidin-4(3H)-one]
–	–	–	–	7.52	Cc1cncc2ncn(Cc3nc([C@@H]4[C@H]5Cc6ccccc6[C@H]54)no3)c(=O)c12 (stereo in doubt) [Example Compound 19, 5-methyl-3-[[3-[rac-(1R,1 aR,6aS)-1,1a,6,6a-tetrahydrocyclopropa[a]inden-1-yl]-1,2,4-oxadiazol-5-yl]methyl]pyrido[3,4-d]pyrimidin-4-one]

Structure (SMILES)	pIC50 [1]	pIC50 [2]	TRPA1 IC50 compared with 3-azabicyclo[3.1.0]hexene linker and cyclobutylene linker analogues (bicyclo[3.1.0]hexene linker compounds versus same-substituent analogues (compounds 16, 191; 26, 1))	pIC50 (compounds incubated 90 minutes at room temperature before cinnamaldehyde agonist)	pIC50 (compounds incubated 10 minutes at room temperature before cinnamaldehyde agonist)
Cn1cnc2ncn(Cc3nc([C@H]4[C@@H]5CN(c6ccc(C#N)cc6)C[C@@H]54)no3)c(=O)c21 [Example Compound 192, 4-((1R,5S,6r)-6-(5-((7-methyl-6-oxo-6,7-dihydro-1H-purin-1-yl)methyl)-1,2,4-oxadiazol-3-yl)-3-azabicyclo[3.1.0]hexan-3-yl)benzonitrile]	7.56	7.89	–	–	–
